# Values quoted from earlier work in PubChem BioAssay AID1259409 (Chemical Carcinogenesis Research Information System (CCRIS), 2018).
# Tested on: rodent chemically induced tumor inhibition, incidence and multiplicity
# Assay: CCRIS tumor inhibitor studies
smiles,measurement,setting,value
OC1C(O)C(O)C(O)C(O)C1O (stereo not drawn),"tumour outcome (control, treated, inhibition, significance)","Carcinogen: 7,12-DIMETHYLBENZ[A]ANTHRACENE, 57-97-6, Dose [Inhibitor]: 0, 15 MILLIMOLAR IN DRINKING WATER FOR 47 WK BEGINNING 2 WK PRIOR TO CARCINOGEN DOSE (STUDY DURATION: 47 WK), Route [Inhibitor]: ORAL, Species: RAT, Strain/Sex: SPRAGUE-DAWLEY/FEMALE, Target Tissue: Type of Lesion: MAMMARY GLAND: TUMOR, Dose [Carcinogen]: 5 MG IN 1 ML CORN OIL ONCE, Promoter: NONE USED","37/40 (93%), 30/40 (75%), 19%, p<0.05"
NC(N)=NC(=O)c1nc(Cl)c(N)nc1N,"tumour outcome (control, treated, inhibition, significance)","Carcinogen: AZOXYMETHANE, 25843-45-2, Dose [Inhibitor]: 0, 5 MG/KG BW 1/2 D FOR 35 WK (STUDY DURATION: 35 WK), Route [Inhibitor]: SUBCUTANEOUS, Species: RAT, Strain/Sex: WISTAR/MALE, Target Tissue: Type of Lesion: COLON: TUMOR, Dose [Carcinogen]: 7.4 MG/KG BW 1/WK FOR 10 WK, Promoter: NONE USED","15/19 (79%), 13/17 (76%), 4%, not significant"
same,"tumour outcome (control, treated, inhibition, significance)","Carcinogen: AZOXYMETHANE, 25843-45-2, Dose [Inhibitor]: 0, 7.5 MG/KG BW 1/2 D FOR 35 WK (STUDY DURATION: 35 WK), Route [Inhibitor]: SUBCUTANEOUS, Species: RAT, Strain/Sex: WISTAR/MALE, Target Tissue: Type of Lesion: COLON: TUMOR, Dose [Carcinogen]: 7.4 MG/KG BW 1/WK FOR 10 WK, Promoter: NONE USED","15/19 (79%), 7/18 (39%), 51%, p<0.001"
same,"tumour outcome (control, treated, inhibition, significance)","Carcinogen: N-METHYL-N'-NITRO-N-NITROSOGUANIDINE, 70-25-7, Dose [Inhibitor]: 0, 2.5 MG/KG BW 1/2 D BEGINNING 25 WK POST FIRST CARCINOGEN DOSE AND CONTINUING FOR DURATION OF STUDY (STUDY DURATION: 5, Route [Inhibitor]: SUBCUTANEOUS, Species: RAT, Strain/Sex: WISTAR/MALE, Target Tissue: Type of Lesion: STOMACH: ADENOCARCINOMA, Dose [Carcinogen]: 50 UG/ML IN DRINKING WATER FOR 25 WK, Promoter: NONE USED","10/20 (50%), 5/17 (29%), 42%, not significant"
same,"tumour outcome (control, treated, inhibition, significance)","Carcinogen: N-METHYL-N'-NITRO-N-NITROSOGUANIDINE, 70-25-7, Dose [Inhibitor]: 0, 5 MG/KG BW 1/2 D BEGINNING 25 WK POST FIRST CARCINOGEN DOSE AND CONTINUING FOR DURATION OF STUDY (STUDY DURATION: 52, Route [Inhibitor]: SUBCUTANEOUS, Species: RAT, Strain/Sex: WISTAR/MALE, Target Tissue: Type of Lesion: STOMACH: ADENOCARCINOMA, Dose [Carcinogen]: 50 UG/ML IN DRINKING WATER FOR 25 WK, Promoter: NONE USED","10/20 (50%), 3/20 (15%), 70%, p<0.05"
CCCCCCCc1c(O)cc(CC=C(C)C)c(O)c1C=O,"tumour outcome (control, treated, inhibition, significance)","Carcinogen: AZOXYMETHANE, 25843-45-2, Dose [Inhibitor]: 0, 0.02% IN DIET IN WK 1-3 OF STUDY FOLLOWED BY BASAL DIET FOR DURATION OF STUDY (STUDY DURATION: 1 YR), Route [Inhibitor]: ORAL, Species: RAT, Strain/Sex: F344/MALE, Target Tissue: Type of Lesion: LARGE INTESTINE: ADENOCARCINOMA, Dose [Carcinogen]: 15 MG/KG BW 1/WK IN WK 1 AND 2 OF STUDY, Promoter: NONE USED","13/27 (48%), 6/30 (20%), 58%, not significant"
same,"tumour outcome (control, treated, inhibition, significance)","Carcinogen: AZOXYMETHANE, 25843-45-2, Dose [Inhibitor]: 0, 0.02% IN DIET IN WK 1-3 OF STUDY FOLLOWED BY BASAL DIET FOR DURATION OF STUDY (STUDY DURATION: 1 YR), Route [Inhibitor]: ORAL, Species: RAT, Strain/Sex: F344/MALE, Target Tissue: Type of Lesion: LARGE INTESTINE: ADENOMA, Dose [Carcinogen]: 15 MG/KG BW 1/WK IN WK 1 AND 2 OF STUDY, Promoter: NONE USED","6/27 (22%), 4/30 (13%), 41%, not significant"
same,"tumour outcome (control, treated, inhibition, significance)","Carcinogen: AZOXYMETHANE, 25843-45-2, Dose [Inhibitor]: 0, 0.02% IN DIET IN WK 1-3 OF STUDY FOLLOWED BY BASAL DIET FOR DURATION OF STUDY (STUDY DURATION: 1 YR), Route [Inhibitor]: ORAL, Species: RAT, Strain/Sex: F344/MALE, Target Tissue: Type of Lesion: SMALL INTESTINE: ADENOCARCINOMA, Dose [Carcinogen]: 15 MG/KG BW 1/WK IN WK 1 AND 2 OF STUDY, Promoter: NONE USED","6/27 (22%), 5/30 (17%), 23%, not significant"
Cc1c(C)c2c(c(C)c1O)CCC(C)(COc1ccc(CC3SC(=O)NC3=O)cc1)O2 (stereo not drawn),"tumour outcome (control, treated, inhibition, significance)","Carcinogen: 4-NITROQUINOLINE 1-OXIDE, 56-57-5, Dose [Inhibitor]: 0, 30 PPM IN DIET FOR 22 WK BEGINNING 1 WK POST FINAL CARCINOGEN DOSE (STUDY DURATION: 31 WK), Route [Inhibitor]: ORAL, Species: RAT, Strain/Sex: F344/MALE, Target Tissue: Type of Lesion: TONGUE: PAPILLOMA, Dose [Carcinogen]: 20 PPM IN DRINKING WATER FOR 8 WK","3/24 (12.5%), 0/19 (0%), 100%, not significant"
same,"tumour outcome (control, treated, inhibition, significance)","Carcinogen: 4-NITROQUINOLINE 1-OXIDE, 56-57-5, Dose [Inhibitor]: 0, 30 PPM IN DIET FOR 22 WK BEGINNING 1 WK POST FINAL CARCINOGEN DOSE (STUDY DURATION: 31 WK), Route [Inhibitor]: ORAL, Species: RAT, Strain/Sex: F344/MALE, Target Tissue: Type of Lesion: TONGUE: SQUAMOUS CELL CARCINOMA, Dose [Carcinogen]: 20 PPM IN DRINKING WATER FOR 8 WK","11/24 (45.8%), 5/19 (26.3%), 42.6%, not significant"
same,"tumour outcome (control, treated, inhibition, significance)","Carcinogen: 4-NITROQUINOLINE 1-OXIDE, 56-57-5, Dose [Inhibitor]: 0, 100 PPM IN DIET FOR 22 WK BEGINNING 1 WK POST FINAL CARCINOGEN DOSE (STUDY DURATION: 31 WK), Route [Inhibitor]: ORAL, Species: RAT, Strain/Sex: F344/MALE, Target Tissue: Type of Lesion: TONGUE: PAPILLOMA, Dose [Carcinogen]: 20 PPM IN DRINKING WATER FOR 8 WK","3/24 (12.5%), 3/20 (15%), -20%, not significant"
same,"tumour outcome (control, treated, inhibition, significance)","Carcinogen: 4-NITROQUINOLINE 1-OXIDE, 56-57-5, Dose [Inhibitor]: 0, 100 PPM IN DIET FOR 22 WK BEGINNING 1 WK POST FINAL CARCINOGEN DOSE (STUDY DURATION: 31 WK), Route [Inhibitor]: ORAL, Species: RAT, Strain/Sex: F344/MALE, Target Tissue: Type of Lesion: TONGUE: SQUAMOUS CELL CARCINOMA, Dose [Carcinogen]: 20 PPM IN DRINKING WATER FOR 8 WK","11/24 (45.8%), 1/20 (5%), 89.1%, p< 0.005"
same,"tumour outcome (control, treated, inhibition, significance)","Carcinogen: AZOXYMETHANE (25843-45-2), Dose [Inhibitor]: 0, 0.05% ADMINISTERED 1 WK AFTER END OF DEXTRAN SODIUM SULFATE TREATMENT FOR 14 WKS (STUDY DURATION: 17 WKS), Route [Inhibitor]: DIET, Species: MOUSE, Strain/Sex: CD-1/FEMALE (10,10)/(10,10), Target Tissue: Type of Lesion: COLON: ADENOCARCINOMA, Dose [Carcinogen]: 10 MG/KG ONCE, Promoter: DEXTRAN SODIUM SULFATE (9011-18-1)","10/10 (100%), 4/10 (40%), 60%, p<0.01"
same,"tumour outcome (control, treated, inhibition, significance)","Carcinogen: AZOXYMETHANE (25843-45-2), Dose [Inhibitor]: 0, 0.05% ADMINISTERED 1 WK AFTER END OF DEXTRAN SODIUM SULFATE TREATMENT FOR 14 WKS (STUDY DURATION: 17 WKS), Route [Inhibitor]: DIET, Species: MOUSE, Strain/Sex: CD-1/FEMALE (10,10)/(10,10), Target Tissue: Type of Lesion: COLON: ADENOMA, Dose [Carcinogen]: 10 MG/KG ONCE, Promoter: DEXTRAN SODIUM SULFATE (9011-18-1)","10/10 (100%), 9/10 (90%), 10%, not significant"
same,"tumour outcome (control, treated, inhibition, significance)","Carcinogen: N-METHYL-N-NITROSOUREA [684-93-5], Dose [Inhibitor]: 0.15% IN DIET FROM WKS 10 TO 52 (STUDY DURATION: 52 WKS), Route [Inhibitor]: ORAL (DIET), Species: MOUSE, Strain/Sex: PEROXISOME PROLIFERATOR- ACTIVATED RECEPTOR (PPAR GAMMA +/+)/MALE (11,9)/(13,11), Target Tissue: Type of Lesion: STOMACH: CARCINOMA, Dose [Carcinogen]: 240 PPM IN DRINKING WATER ON ALTERNATE WKS OVER A 10 WK PERIOD","(5/9) 56%, (1/11) 9%, 84%, p<0.01"
same,"tumour outcome (control, treated, inhibition, significance)","Carcinogen: N-METHYL-N-NITROSOUREA [684-93-5], Dose [Inhibitor]: 0.15% IN DIET FROM WKS 10 TO 52 (STUDY DURATION: 52 WKS), Route [Inhibitor]: ORAL (DIET), Species: MOUSE, Strain/Sex: PEROXISOME PROLIFERATOR- ACTIVATED RECEPTOR (PPAR GAMMA +/-)/MALE (23,19)/(19,15), Target Tissue: Type of Lesion: STOMACH: CARCINOMA, Dose [Carcinogen]: 240 PPM IN DRINKING WATER ON ALTERNATE WKS OVER A 10 WK PERIOD","(17/19) 90%, (12/15) 80%, 11%, not significant"
Oc1cccc(O)c1O,"tumour outcome (control, treated, inhibition, significance)","Carcinogen: BENZO[A]PYRENE, 50-32-8, Dose [Inhibitor]: 5 MG IN 0.1 ML ACETONE 3/WK ADMINISTERED SIMULTANEOUSLY WITH CARCINOGEN FOR DURATION OF STUDY (STUDY DURATION: 440 D), Route [Inhibitor]: DERMAL, Species: MOUSE, Strain/Sex: ICR/FEMALE, Target Tissue: Type of Lesion: SKIN: PAPILLOMA, Dose [Carcinogen]: 5 UG IN 0.1 ML ACETONE THAT ALSO CONTAINED AGENT 3/WK, Promoter: NONE USED","16/50 (32%), 40/50 (80%), -150%, not calculated"
same,"tumour outcome (control, treated, inhibition, significance)","Carcinogen: BENZO[A]PYRENE, 50-32-8, Dose [Inhibitor]: 5 MG IN 0.1 ML ACETONE 3/WK ADMINISTERED SIMULTANEOUSLY WITH CARCINOGEN FOR DURATION OF STUDY (STUDY DURATION: 440 D), Route [Inhibitor]: DERMAL, Species: MOUSE, Strain/Sex: ICR/FEMALE, Target Tissue: Type of Lesion: SKIN: SQUAMOUS CARCINOMA, Dose [Carcinogen]: 5 UG IN 0.1 ML ACETONE THAT ALSO CONTAINED AGENT 3/WK, Promoter: NONE USED","12/50 (24%), 33/50 (66%), -175%, not calculated"
